The source of these data is US8178506B2, “Oligomeric compounds and compositions for use in modulation of small non-coding RNAs” (Regulus Therapeutics Inc., priority 2003, dated 2012).

What all share (assay type): cell-based, human
One data set relates to preadipocytes. Kind of data set: Caspase assay in preadipocytes. The settings on record: untreated control set equal to 1.0. The text has this: The effect of oligomeric compounds of the present invention targeting miRNAs was examined in preadipocytes (Zen-Bio, Inc., Research Triangle Park, N.C.) using the fluorometric caspase assay previously described in Example 11.
The next data set deals with leptin. Put plainly: Leptin secretion by adipocytes (ELISA). The following applies: adipocytes, 250 nM oligomeric compound, day nine post-transfection, relative to control (1.0); Table 16.
Another data set concerns HeLa cells. Put plainly: Cell cycle assay in HeLa cells. The following applies: HeLa cells.
[1] abbreviates: 25 nM, 48 hours, percentage of cells in phase, average of replicates.
The mark [2] stands for this setting: 50 nM, 48 hours, percentage of cells in phase, average of replicates.
[3] abbreviates: 100 nM, 48 hours, percentage of cells in phase, average of replicates.
[4] abbreviates: 150 nM oligomeric compound, 24 hours, relative to untreated control (UTC = 100).
Where [5] appears, read: 150 nM oligomeric compound, 48 hours after treatment, relative to untreated control (UTC=100).
Setting [6] is: 150 nM, 48 hours, relative to untreated control.
[7] abbreviates: 150 nM, 48 hours, percentage of cells in phase, average of replicates.

Several values for one entry are separate records, joined by “and”; a condition that tells them apart may be missing. Identical values can stand only once. In the oligonucleotide strings, read from the 5' end, every base follows the letter of its sugar. An asterisk marks phosphorothioate; unmarked linkages are phosphodiester. Other units and linkages are bracketed, terminal groups are in braces. A string of capitals states the bases alone. e = 2'-O-(2-methoxyethyl) (MOE); [5mC] = 5-methylcytosine

With “327905 (antisense e[5mC]*eA*eG*eA*e[5mC]*eT*e[5mC]*e[5mC]*eG*eG*eT*eG*eG*eA*eA*eT*eG*eA*eA*eG*eG*eA) [compound 327905]”, in the data set on preadipocytes, the “Fold Increase over UTC (caspase activity)” value (“Fold Increase over UTC” for short) is reported as 1.5 fold over UTC. For the same substance, the “Leptin (secretion)” value in the data set on leptin is 1.62. The “% cells in cell cycle phase: G2/M” value with HeLa cells (25 nM, 48 hours) is 18%. In the data set with HeLa cells (setting [1]), the “% cells in cell cycle phase: G1” value is reported as 57%, the “% cells in cell cycle phase: S” value was determined as 24%, the “% cells in cell cycle phase: aneuploid” value turned out to be 12% and the “% cells in cell cycle phase: subG1” value was determined as 1.7%. The “% cells in cell cycle phase: G2/M” value in the data set on HeLa cells (50 nM, 48 hours) came to 20%. For the same substance, in the data set on HeLa cells (setting [2]), the “% cells in cell cycle phase: G1” value was 50%, the “% cells in cell cycle phase: S” value is listed as 30%, the “% cells in cell cycle phase: aneuploid” value is reported as 12% and the “% cells in cell cycle phase: subG1” value was determined as 2.1%. For the same substance, the “% cells in cell cycle phase: G2/M” value in the data set on HeLa cells (100 nM, 48 hours) is listed as 24%. For the same substance, in the data set with HeLa cells (setting [3]), the “% cells in cell cycle phase: G1” value was determined as 46%, the “% cells in cell cycle phase: S” value amounted to 30%, the “% cells in cell cycle phase: aneuploid” value turned out to be 14% and the “% cells in cell cycle phase: subG1” value came out at 2.5%. Also, in the data set with HeLa cells (setting [4]), the “% cells aneuploid” value was 50% and 98%; the “% cells in cell cycle phase G1” value is 99% and 94%; the “% cells in cell cycle phase G2/M” value was 129% and 121%; the “% cells in cell cycle phase S” value was 88% and 95%. The “% cells in cell cycle phase subG1” value in the data set on HeLa cells (setting [4]) is 144% and 149%. In the data set with HeLa cells (setting [5]), the “% cells in cell cycle phase: G1” value was 48% and 78%; the “% cells in cell cycle phase: G2/M” value was 150% and 122%; the “% cells in cell cycle phase: S” value was 194% and 143%; the “% cells in cell cycle phase: aneuploid” value was 67% and 99%. For the same substance, the “% cells in cell cycle phase: G2/M” value in the data set with HeLa cells (150 nM, 48 hours) was 24%. Further, in the data set on HeLa cells (setting [6]), the “% cells in cell cycle phase G1” value came out at 108%, the “% cells in cell cycle phase G2/M” value stood at 90%, the “% cells in cell cycle phase S” value came to 99% and the “% cells in cell cycle phase aneuploid” value was 164%. The “% cells in cell cycle phase subG1” value in the data set with HeLa cells (setting [6]) is listed as 55%. In the data set with HeLa cells (setting [7]), the “% cells in cell cycle phase: G1” value is 38%, the “% cells in cell cycle phase: S” value is on record as 38%, the “% cells in cell cycle phase: aneuploid” value worked out at 12% and the “% cells in cell cycle phase: subG1” value worked out at 4.5%.
For the substance “327903 (antisense eA*eA*e[5mC]*eT*eA*eT*eA*e[5mC]*eA*eA*e[5mC]*e[5mC]*eT*eA*e[5mC]*eT*eA*e[5mC]*e[5mC]*eT*e[5mC]*eA) [compound 327903]”, in the data set with preadipocytes, the “Fold Increase over UTC” value is listed as 1.6 fold over UTC. For the same substance, the “Leptin (secretion)” value in the data set on leptin is given as 1.61. In the data set on HeLa cells (setting [4]), the “% cells aneuploid” value turned out to be 98%, the “% cells in cell cycle phase G1” value is reported as 92%, the “% cells in cell cycle phase G2/M” value was found to be 106% and the “% cells in cell cycle phase S” value worked out at 104%. For the same substance, the “% cells in cell cycle phase subG1” value in the data set with HeLa cells (setting [4]) was determined as 118%. Moreover, in the data set with HeLa cells (setting [5]), the “% cells in cell cycle phase: G1” value was 102%, the “% cells in cell cycle phase: G2/M” value was determined as 98%, the “% cells in cell cycle phase: S” value is listed as 95% and the “% cells in cell cycle phase: aneuploid” value is 94%. Besides, in the data set with HeLa cells (setting [5]), the “% cells in cell cycle phase: subG1” value worked out at 74%.
Consider “327919 (antisense eG*eA*eA*eA*e[5mC]*e[5mC]*e[5mC]*eA*eG*e[5mC]*eA*eG*eA*e[5mC]*eA*eA*eT*eG*eT*eA*eG*e[5mC]*eT) [compound 327919]”, for which, in the data set with preadipocytes, the “Fold Increase over UTC” value was 1.3 fold over UTC. Besides, the “Leptin (secretion)” value with leptin is recorded as 1.44. Also, in the data set on HeLa cells (setting [4]), the “% cells aneuploid” value turned out to be 96%, the “% cells in cell cycle phase G1” value worked out at 92%, the “% cells in cell cycle phase G2/M” value was 109% and the “% cells in cell cycle phase S” value was 103%. The “% cells in cell cycle phase subG1” value in the data set with HeLa cells (setting [4]) came to 85%. Besides, in the data set with HeLa cells (setting [5]), the “% cells in cell cycle phase: G1” value is reported as 80%, the “% cells in cell cycle phase: G2/M” value came to 139%, the “% cells in cell cycle phase: S” value is recorded as 122% and the “% cells in cell cycle phase: aneuploid” value stood at 104%. Also, the “% cells in cell cycle phase: subG1” value with HeLa cells (setting [5]) came out at 104%.
